Experimental data published in patent US11578343B2, “CAS9 proteins including ligand-dependent inteins” (President and Fellows of Harvard College, priority 2014, dated 2023).

Columns and labels:
Assay type in all cases: cell-based, human
[1] = tested on: CLTA Off 1; assay: High-throughput DNA sequencing of genome modifications; conditions: 500 ng Cas9 plasmid; for Mod. Freq (indels/total sequences), CLTA Off 1: Table 4
Experimental: (§1) We assayed these Cas9:sgRNA combinations in human cells for their ability to modify the three on-target loci as well as 11 known off-target genomic sites (Table 3)^4,5,10,13. Cells were treated with or without 1 μM 4-HT during transfection, and after 12 h the media was replaced with fresh media lacking 4-HT. […] Genomic DNA was isolated 60 h post-transfection and analyzed by high-throughput DNA sequencing
(§2) High-throughput DNA sequencing of genome modifications. HEK293-GFP stable cells were transfected with plasmids expressing Cas9 (500 ng) and sgRNA (125 ng) as described above. […] 4-HT (1 μM final), where appropriate, was added during transfection. 12 h after transfection, the media was replaced with full serum media without 4-HT. Genomic DNA was isolated and pooled from three biological replicates 60 h after transfection using a previously reported^11 protocol with a DNAdvance Kit (Agencourt). 150 ng or 200 ng of genomic DNA was used as a template to amplify by PCR the on-target and off-target genomic sites with flanking HTS primer pairs described previously^11. PCR products were purified using RapidTips (Diffinity Genomics) and quantified using the PicoGreen dsDNA Assay Kit (Invitrogen). Purified DNA was PCR amplified with primers containing sequencing adaptors, purified with the MinElute PCR Purification Kit (Qiagen) and AMPure XP PCR Purification (Agencourt). Samples were sequenced on a MiSeq high-throughput DNA sequencer (Illumina), and sequencing data was analyzed as described previously^4.
(§3) Sensitivity limit of off-target cleavage assays. We used paired end sequencing to identify indels caused by genomic on- and off-target cleavage. […] A 1 ng sample of human gDNA represents only ˜330 unique genomes, and thus only ˜330 unique copies of each genomic site are present. PCR amplification for each genomic target was performed on a total of 150 ng or 200 ng of input gDNA, which provides amplicons derived from at most 50,000 or 65,000 unique gDNA copies, respectively. Therefore, the high-throughput sequencing assay cannot detect rare genome modification events that occur at a frequency of less than approximately 1 in 50,000 (0.002%). When comparing between two conditions, such as wt Cas9 vs. intein-Cas9, this threshold becomes approximately 10 in 50,000 (0.02%) when using the Fisher exact test and a conservative multiple comparison correction (Bonferroni with 14 samples). See also Minoche, A. E., Dohm, J. C., & Himmelbauer, H. Evaluation of genomic high-throughput sequencing data generated on Illumina HiSeq and Genome Analyzer systems. Genome Biology 12, R112 (2011).

[2] = tested on: CLTA Off 2; assay: as above; conditions: 500 ng Cas9 plasmid; for Mod. Freq (indels/total sequences), CLTA Off 2: Table 4
Experimental: as §1, §2, §3

[3] = tested on: CLTA Off 3; assay: as above; conditions: 500 ng Cas9 plasmid; for Mod. Freq (indels/total sequences), CLTA Off 3: Table 4
Experimental: as §1, §2, §3

[4] = tested on: CLTA On; assay: as above; conditions: 500 ng Cas9 plasmid; for Mod. Freq (indels/total sequences), CLTA On: Table 4
Experimental: as §1, §2, §3

[5] = tested on: EMX Off 1; assay: as above; conditions: 500 ng Cas9 plasmid; for Mod. Freq (indels/total sequences), EMX Off 1: Table 4
Experimental: as §1, §2, §3

[6] = tested on: EMX Off 2; assay: as above; conditions: 500 ng Cas9 plasmid; for Mod. Freq (indels/total sequences), EMX Off 2: Table 4
Experimental: as §1, §2, §3

[7] = tested on: EMX Off 3; assay: as above; conditions: 500 ng Cas9 plasmid; for Mod. Freq (indels/total sequences), EMX Off 3: Table 4
Experimental: as §1, §2, §3

[8] = tested on: EMX Off 4; assay: as above; conditions: 500 ng Cas9 plasmid; for Mod. Freq (indels/total sequences), EMX Off 4: Table 4
Experimental: as §1, §2, §3

[9] = tested on: EMX On; assay: as above; conditions: 500 ng Cas9 plasmid; for Mod. Freq (indels/total sequences), EMX On: Table 4; for Mod Freq (indels/total sequences), EMX On: +4-HT, Table 6
Experimental: as §1, §2, §3

[10] = tested on: VEGF Off 1; assay: as above; conditions: 500 ng Cas9 plasmid; for Mod. Freq (indels/total sequences), VEGF Off 1: Table 4
Experimental: as §1, §2, §3

[11] = tested on: VEGF Off 2; assay: as above; conditions: 500 ng Cas9 plasmid; for Mod. Freq (indels/total sequences), VEGF Off 2: Table 4
Experimental: as §1, §2, §3

[12] = tested on: VEGF Off 3; assay: as above; conditions: 500 ng Cas9 plasmid; for Mod. Freq (indels/total sequences), VEGF Off 3: Table 4
Experimental: as §1, §2, §3

[13] = tested on: VEGF Off 4; assay: as above; conditions: 500 ng Cas9 plasmid; for Mod. Freq (indels/total sequences), VEGF Off 4: Table 4
Experimental: as §1, §2, §3

[14] = tested on: VEGF On; assay: as above; conditions: 500 ng Cas9 plasmid; for Mod. Freq (indels/total sequences), VEGF On: Table 4
Experimental: as §1, §2, §3

[15] = tested on: EMX, VEGF, and CLTA genomic loci; assay: High-throughput DNA sequencing of genome modifications, summary over on-target and off-target sites
Experimental: as §1, §2, §3

intein(Cys574)-Cas9: Cas9 with 37R3-2 intein replacing Cys574 (SEQ ID NO: 33)
Mod. Freq (indels/total sequences), CLTA Off 1 ([1]; +4-HT (1 μM, 12 h)): 0.04% | Mod Freq (indels/total sequences), CLTA Off 1 ([1]; +4-HT, Table 6): 0.03% | Mod. Freq (indels/total sequences), CLTA Off 1 ([1]; −4-HT): 0.01% | Mod. Freq (indels/total sequences), CLTA Off 2 ([2]; +4-HT (1 μM, 12 h)): 0.02% | Mod Freq (indels/total sequences), CLTA Off 2 ([2]; +4-HT, Table 6): 0.00% | Mod. Freq (indels/total sequences), CLTA Off 2 ([2]; −4-HT): 0.00% | Mod. Freq (indels/total sequences), CLTA Off 3 ([3]; +4-HT (1 μM, 12 h)): 0.01% | Mod Freq (indels/total sequences), CLTA Off 3 ([3]; +4-HT, Table 6): 0.01% | Mod. Freq (indels/total sequences), CLTA Off 3 ([3]; −4-HT): 0.00% | Mod. Freq (indels/total sequences), CLTA On ([4]; +4-HT (1 μM, 12 h)): 7.65% | Mod Freq (indels/total sequences), CLTA On ([4]; +4-HT, Table 6): 6.35% | Mod. Freq (indels/total sequences), CLTA On ([4]; −4-HT): 1.81% | Mod. Freq (indels/total sequences), EMX Off 1 ([5]; +4-HT (1 μM, 12 h)): 0.27% | Mod Freq (indels/total sequences), EMX Off 1 ([5]; +4-HT, Table 6): 0.17% | Mod. Freq (indels/total sequences), EMX Off 1 ([5]; −4-HT): 0.01% | Mod. Freq (indels/total sequences), EMX Off 2 ([6]; +4-HT (1 μM, 12 h)): 0.04% | Mod Freq (indels/total sequences), EMX Off 2 ([6]; +4-HT, Table 6): 0.02% | Mod. Freq (indels/total sequences), EMX Off 2 ([6]; −4-HT): 0.01% | Mod. Freq (indels/total sequences), EMX Off 3 ([7]; +4-HT (1 μM, 12 h)): 0.29% | Mod Freq (indels/total sequences), EMX Off 3 ([7]; +4-HT, Table 6): 0.25% | Mod. Freq (indels/total sequences), EMX Off 3 ([7]; −4-HT): 0.02% | Mod. Freq (indels/total sequences), EMX Off 4 ([8]; +4-HT (1 μM, 12 h)): 1.13% | Mod Freq (indels/total sequences), EMX Off 4 ([8]; +4-HT, Table 6): 0.85% | Mod. Freq (indels/total sequences), EMX Off 4 ([8]; −4-HT): 0.09% | Mod. Freq (indels/total sequences), EMX On ([9]; +4-HT (1 μM, 12 h)): 9.47% | Mod Freq (indels/total sequences), EMX On ([9]; listed as intein-Cas9 (C574)): 6.42% | Mod Freq (indels/total sequences), EMX On ([9]; listed as intein-Cas9(C574)): 6.4% | Mod. Freq (indels/total sequences), EMX On ([9]; −4-HT): 0.99% | Mod. Freq (indels/total sequences), VEGF Off 1 ([10]; +4-HT (1 μM, 12 h)): 4.68% | Mod Freq (indels/total sequences), VEGF Off 1 ([10]; +4-HT, Table 6): 3.18% | Mod. Freq (indels/total sequences), VEGF Off 1 ([10]; −4-HT): 0.29% | Mod. Freq (indels/total sequences), VEGF Off 2 ([11]; +4-HT (1 μM, 12 h)): 0.77% | Mod Freq (indels/total sequences), VEGF Off 2 ([11]; +4-HT, Table 6): 0.38% | Mod. Freq (indels/total sequences), VEGF Off 2 ([11]; −4-HT): 0.05% | Mod. Freq (indels/total sequences), VEGF Off 3 ([12]; +4-HT (1 μM, 12 h)): 0.19% | Mod Freq (indels/total sequences), VEGF Off 3 ([12]; +4-HT, Table 6): 0.07% | Mod. Freq (indels/total sequences), VEGF Off 3 ([12]; −4-HT): 0.01% | Mod. Freq (indels/total sequences), VEGF Off 4 ([13]; +4-HT (1 μM, 12 h)): 1.40% | Mod Freq (indels/total sequences), VEGF Off 4 ([13]; +4-HT, Table 6): 0.91% | Mod. Freq (indels/total sequences), VEGF Off 4 ([13]; −4-HT): 0.07% | Mod. Freq (indels/total sequences), VEGF On ([14]; +4-HT (1 μM, 12 h)): 3.03% | Mod Freq (indels/total sequences), VEGF On ([14]; +4-HT, Table 6): 2.31% | Mod. Freq (indels/total sequences), VEGF On ([14]; −4-HT): 0.85% | Off-target modification frequency, average fold lower than wild-type Cas9 (80 ng) ([15]; EMX locus, all four off-target sites, +4-HT, similar on-target cleavage): 4 fold | Activity compared to wild-type Cas9 ([15]; absence of 4-HT): much less active | Activity compared to wild-type Cas9 ([15]; presence of 4-HT): slightly less active than wild-type Cas9
